Assay results as given in patent US12377069B2, “Compounds, compositions, methods of using, and methods for preparing compounds” (UNIVERSITY OF LOUISVILLE RESEARCH FOUNDATION, INC., priority 2018, dated 2025).

Legend:
HT29 or Caco2 cells = assay: Tight junction protein expression (RT PCR, immunoblot, confocal); assay type: cell-based, human; conditions: 24 h; for tight junction protein levels (Western blots; Cldn4 confocal imaging): HT29 and Caco2, 50 μM
Procedure: Real time PCR: Total RNA was isolated from cells/tissue using Maxwell® 16 LEV simplyRNA tissue kit (Promega) and reverse transcribed with TaqManC Reverse transcription Kit (Applied Biosystems, CA, USA). The transcribed cDNA (after dilution) was mixed with 100 nM gene specific primers (Real time primers LLC) and 1×SYBR green reaction mix (Power SYBR® Green PCR Master Mix; Applied Biosystems, CA, USA). Changes in gene expression was analyzed using CFX96™ Real-Time System (Bio Rad) and fold change in expression was calculated using 2^ΔΔCT method using GAPDH/0-actin as house keeping gene and normalized with untreated control.
(§1) Immunoblots (Western blots): The total protein lysates were collected either from colon tissue/cells using radioimmunoprecipitation assay (RIPA) buffer (Sigma-Aldrich, USA) and quantified using BCA protein quantification kit (Thermo Scientific) as per instructional manual. Total protein (20-50 μg) of was resolved on NuPAGE™ 4-12% Bis-Tris gel (Novex Life technologies) and transferred to polyvinylidene difluoride membrane (0.22 μm pore; Millipore, USA). After blocking with 5% (w/v) skim milk powder (containing 1×TBS) for 1 h, the membrane was then incubated with respective antibodies at 4° C. overnight (dilutions of respective antibodies is given in Table A1). Next day, respective secondary antibody conjugated with Horseradish peroxidase were probed and the chemiluminescent substrate was used to detect the protein bands (ImageQuant LAS 4000). Densitometry analysis of bands were done using ImageJ software. Antibodies for Cldn4, Ocln, Cldn1, Cyp1A1, AhR, HO1, NQO1, Keap1, β-actin and Lamin B were purchased from Santa Cruz Biotechnologies (USA) and Nrf2 from Novus Biologicals (USA).
Confocal Imaging: HT29 or CaCo2 or BMDM cells (50,000 cells/well) were plated on to 8-well chambered slides (154534PK; ThermoFisher Scientific) allowed them to grow overnight. The cells were induced with vehicle (0.01% DMSO) or UroA (50 μM) or UAS03 (50 μM) for desired time points and fixed with cold methonol. […]

Caco2 or HT29 cells = assay: In vitro FITC-dextran permeability assay; assay type: cell-based, human; conditions: pretreatment 50 μM 24 h; LPS 50 ng/ml 2 h
Procedure: In vitro permeability study: For in vitro cellular permeability studies, Caco2 cells or HT29 cells (2×10^4 cells/cm^2) were seeded in 24-well Transwell® plates (Cornings; USA), on polyester membrane filters (pore size 0.4 μm, surface area 1.12 cm^2) (KOWAPRADIT et al. (2010) “In vitro permeability enhancement in intestinal epithelial cells (Caco-2) monolayer of water soluble quaternary ammonium chitosan derivatives” Aaps Pharmscitech, Vol. 11, pp. 497-508). Culture medium was added to both apical and basal chamber and the medium was changed every other day up to 21 days for Caco2 cells or 5-7 days for HT29 cells. For Caco2 cells, transepethelial electrical resistance (TEER) was calculated using EMD Millipore Millicell-ERS2 Volt-Ohm Meter (Millipore). Filters (with cell monolayer) showing more than 600 Ω·cm^2 were used for permeability study. After cells reach desired confluence (monolayered cells), cells were pre-treated with vehicle (0.01% DMSO) UroA (50 μM) and UAS03 […] for 24 hours. After treatment, monolayer was washed with PBS to remove any residual drug and 200 μL of LPS (50 ng/ml in HBSS) was added to each well and incubated for 2 hours. […] After 2 h, a sample from the basal chamber was withdrawn and FD4 concentration was determined using fluorescence 96-wells plate reader at excitation and emission wavelengths were 480 and 525 nm, respectively.

AhR = AhR nuclear translocation; assay type: cell-based, human; conditions: HT29, 50 μM
Procedure: Confocal Imaging: HT29 or CaCo2 or BMDM cells (50,000 cells/well) were plated on to 8-well chambered slides (154534PK; ThermoFisher Scientific) allowed them to grow overnight. The cells were induced with vehicle (0.01% DMSO) or UroA (50 μM) or UAS03 (50 μM) for desired time points and fixed with cold methonol. The AhR or Nrf2 or Cldn4 stained with respective antibodies (1:200 dilution) followed by fluorecently labelled (Alexa flour 594 for AhR and Alexa flour 488 for Nrf2 and Cldn4) secondary ab (1:500 dilution; ThermoFisher Scientific). The nucleus was stained with DAPI (Sigma Aldrich). The confocal images were captured using Nikon AIR confocal microscope using 60× magnification lense with appropriate laser channels.

[1] = tested on: C57BL/6, Nrf2^−/− and AhR^−/− mice; assay: Colon protein/mRNA expression after 7 days of oral treatment; assay type: in vivo, mouse; conditions: for AhR expression in colons of treated mice / Nrf2 and HO1 in the colons of wild type mice / expression of Cldn4 in the colons of mice: oral 20 mg/kg daily, 7 days; for Nrf2 and tight junction proteins (Cldn4, NQO1, Ocln, ZO1 and TJP3) in WT mice / Nrf2 and tight junction proteins in Nrf2^−/− and AhR^−/− mice: orally 20 mg/kg daily, seven days
Procedure: as §1
Tissue processing for RNA and protein analysis: Mice were treated with as described in results section. Mice were euthanized with CO2 asphyxiation followed by cervical dislocation. Colon was dissected out and luminal contents were flushed out with cold PBS (containing PMSF and Sodium orthvandate). Small portion of colon was snap frozen in liquid nitrogen and stored at −80° C. for RNA analysis. For preparation of protein samples, colon was opened longitudinally and mucosa was scraped in ice-cold 1×PBS using pre-chilled glass slide and centrifuged at 300×g for 10 min at 4° C. Supernatant was discarded and pellet was suspended in RIPA buffer (containing 1× protease inhibitor) and vortexed at high speed. After 30 min incubation on ice, samples were centrifuged at 13,000×g for 20 min at 4° C. Supernatant was collected and protein was quantified using BCA protein quantification kit. The lysates were used appropriately for Western blots.

C57BL/6 mice = assay: 28-day repeated dose toxicity study; conditions: oral 20 or 40 mg/kg daily, 28 days
Procedure: 28-day repeated dose toxicity study: To evaluate toxicity of UroA and UAS03, we performed 28-days repeated dose toxicity study. Mice were fed (oral gavage) with UroA (20 and 40 mg/kg/day) and UAS03 (20 and 40 mg/kg/day) daily for 28 days. Body weight, food and water intake were assessed weekly. After 28 days, mice were sacrificed and gross examination of all major organs were performed. Blood was collected to obtain serum. Serum alanine aminotransferase (ALT) and asparate aminotransferase (AST) were analyzed using ALT/AST kit (BioVision) as per instructional manual.

HeLa cells = assay: Autophagy induction (RFP-GFP-LC3); assay type: cell-based; conditions: 2 hours treatment
Procedure: Autophagy induction after compound treatment for 2 hours is assessed by the presence of red and green punctate inside the cells. The HeLa cells were transfected with RFP-GFP-LC3 plasmid 48 hours prior to drug treatments. After drug treatment for 2 hours the cells are fixed and imaged. LC3 is a protein that is expressed on autophagosomes and is seen as green puncta. When the autophagosome and lysosome fuse to form autolysosomes, the acidic pH inside of it causes degradation of GFP protein and only red puncta are visible (FIG. 26).

Row | SMILES | tight junction protein levels (Western blots; Cldn4 confocal imaging) (HT29 or Caco2 cells) | LPS induced leakage of FITC-dextran into bottom chambers (Caco2 or HT29 cells) | nuclear translocation of AhR (AhR) | AhR expression in colons of treated mice [1] | Nrf2 and HO1 in the colons of wild type mice [1] | expression of Cldn4 in the colons of mice [1] | Nrf2 and tight junction proteins (Cldn4, NQO1, Ocln, ZO1 and TJP3) in WT mice [1] | Nrf2 and tight junction proteins in Nrf2^−/− and AhR^−/− mice [1] | serum AST and ALT levels at day 28 (C57BL/6 mice) | signs of toxicity (body weights, CBC counts, serum ALT and AST) (C57BL/6 mice) | autophagy induction (HeLa cells) | expression of ZO-1 and Ocln1 (real time PCR) (HT29 or Caco2 cells; HT29, 50 μM)
1 | Oc1ccc2c(c1)COc1cc(O)ccc1-2 [UAS03, 6H-benzo[c]chromene-3,8-diol] | increased levels | inhibited LPS induced leakage | induced the nuclear translocation | upregulated | upregulated | elevated expression | upregulated | did not appear to induce | no significant differences | did not exhibit any signs of toxicity | induce autophagy | –
2 | O=c1oc2cc(O)ccc2c2ccc(O)cc12 [UroA, 3,8-dihydroxy-6H-dibenzo[b,d]pyran-6-one] | increased levels | inhibited LPS induced leakage | induced the nuclear translocation | upregulated | upregulated | elevated expression | upregulated | did not appear to induce | no significant differences | – | induce autophagy | increase in expression
